Reference: ChEMBL document CHEMBL5360658, “Discovery of MK-8768, a Potent and Selective mGluR2 Negative Allosteric Modulator” (ACS Med Chem Lett, 2023)
≈ marks a conversion by molar mass, not a printed value.

Tests used:
[1] = Apparent permeability in […] LLC-MDR1 cell; type: ADME, cell-based; conditions: LLC-PK1
[2] = Solubility of the compound at pH 7; type: physicochemical; conditions: buffer, read-out: solubility
[3] = target: Voltage-gated inwardly rectifying potassium channel KCNH2 (Homo sapiens, UniProt Q12809); experiment: Displacement of [35S]-MK-499 from hERG expressed in HEK293 cells […]; type: toxicity, cell-based
PXR (NR1I2) = target: T1, PXR (NR1I2) (Homo sapiens, UniProt O75469); experiment: Agonist activity at PXR (unknown origin) assessed as maximal efficacy at 30 uM
T1 sequence (O75469 whole entry): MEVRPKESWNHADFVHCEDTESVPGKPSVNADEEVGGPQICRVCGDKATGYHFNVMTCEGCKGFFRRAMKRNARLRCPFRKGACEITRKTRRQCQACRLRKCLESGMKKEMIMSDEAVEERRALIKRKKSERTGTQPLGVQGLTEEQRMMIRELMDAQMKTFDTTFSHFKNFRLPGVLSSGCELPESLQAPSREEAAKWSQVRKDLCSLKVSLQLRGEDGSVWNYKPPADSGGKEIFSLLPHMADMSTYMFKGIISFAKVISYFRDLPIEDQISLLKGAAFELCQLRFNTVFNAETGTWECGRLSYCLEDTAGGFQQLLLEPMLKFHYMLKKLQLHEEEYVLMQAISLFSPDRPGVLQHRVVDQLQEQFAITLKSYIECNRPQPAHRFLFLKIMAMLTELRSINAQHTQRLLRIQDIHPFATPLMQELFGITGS

[4] = target: T2, Nuclear receptor subfamily 1 group I member 2 (Homo sapiens, UniProt O75469); experiment: Agonist activity at PXR (unknown origin)
T2 sequence (O75469 whole entry): T1 sequence (O75469 whole entry)

Sequence of Voltage-gated inwardly rectifying potassium channel KCNH2 (Q12809 whole entry): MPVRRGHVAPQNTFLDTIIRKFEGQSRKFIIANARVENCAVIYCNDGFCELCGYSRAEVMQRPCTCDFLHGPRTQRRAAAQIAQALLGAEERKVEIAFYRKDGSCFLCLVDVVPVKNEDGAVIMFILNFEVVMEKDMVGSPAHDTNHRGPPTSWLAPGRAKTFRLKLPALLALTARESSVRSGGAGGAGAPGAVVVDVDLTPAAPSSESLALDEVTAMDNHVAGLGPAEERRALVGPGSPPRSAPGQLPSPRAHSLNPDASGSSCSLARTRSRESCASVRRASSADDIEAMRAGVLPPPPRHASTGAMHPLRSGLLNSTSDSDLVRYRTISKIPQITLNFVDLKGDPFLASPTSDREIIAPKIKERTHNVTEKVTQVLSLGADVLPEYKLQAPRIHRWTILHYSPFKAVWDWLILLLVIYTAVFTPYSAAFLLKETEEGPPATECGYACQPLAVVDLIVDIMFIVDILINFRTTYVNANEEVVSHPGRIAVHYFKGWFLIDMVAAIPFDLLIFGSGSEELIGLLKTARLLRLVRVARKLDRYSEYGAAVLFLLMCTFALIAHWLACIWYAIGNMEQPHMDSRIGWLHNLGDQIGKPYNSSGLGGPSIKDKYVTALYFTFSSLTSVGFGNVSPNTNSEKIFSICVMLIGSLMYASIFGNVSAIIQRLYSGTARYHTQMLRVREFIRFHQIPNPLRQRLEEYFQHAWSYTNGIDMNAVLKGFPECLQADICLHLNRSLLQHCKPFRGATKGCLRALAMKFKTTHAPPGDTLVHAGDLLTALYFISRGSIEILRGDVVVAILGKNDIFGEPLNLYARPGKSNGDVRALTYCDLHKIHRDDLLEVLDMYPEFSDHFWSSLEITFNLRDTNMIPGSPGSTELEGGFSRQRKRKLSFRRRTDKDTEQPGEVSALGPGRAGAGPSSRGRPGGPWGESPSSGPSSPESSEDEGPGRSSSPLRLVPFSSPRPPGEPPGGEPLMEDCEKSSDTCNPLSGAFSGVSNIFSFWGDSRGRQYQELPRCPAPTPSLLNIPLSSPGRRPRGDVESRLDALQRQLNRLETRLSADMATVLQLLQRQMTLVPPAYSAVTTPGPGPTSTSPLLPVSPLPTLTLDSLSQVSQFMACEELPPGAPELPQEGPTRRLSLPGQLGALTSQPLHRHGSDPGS

| Papp [1] | solubility [2] | Emax at 30 µM (PXR (NR1I2)) | EC50 [4] | SMILES | IC50 [3] |
| --- | --- | --- | --- | --- | --- |
| 31 ×10⁻⁶ cm/s | 7 µM (≈ 2.71 µg/mL) | 1% | > 30 µM | Cc1ncc(NCc2ccc3c(-c4ccc(F)cc4)cc(C(N)=O)nc3c2)cn1 | 6.2 µM |
| 38 ×10⁻⁶ cm/s | < 2 µM | 110% | 3.5 µM | CN(C)C(=O)C(C)(C)c1ccc2c(-c3ccc(F)cc3)cc(C(N)=O)nc2c1 | 40 µM |
| 24 ×10⁻⁶ cm/s | 6 µM (≈ 2.26 µg/mL) | 50% | > 30 µM | NC(=O)c1cc(-c2ccc(F)cc2)c2ccc(CNCC(F)(F)F)cc2n1 | 10.2 µM |
| 33 ×10⁻⁶ cm/s | < 1 µM | 115% | 0.6 µM | CC1CC=C(c2cc(C(N)=O)nc3cc(CN4C(=O)CCC4=O)ccc23)CC1 (racemic) | 27 µM |
| 31 ×10⁻⁶ cm/s | < 1 µM | 47% | > 30 µM | NC(=O)c1cc(-c2ccc(F)cc2)c2ccc(CCc3cncnc3)cc2n1 | > 60 µM |
| 35 ×10⁻⁶ cm/s | 157 µM (≈ 57.8 µg/mL) |  |  | NC(=O)c1cc(N2CCOCC2)c2ccc(CN3C(=O)CCC3=O)cc2n1 | 17 µM |
| 27 ×10⁻⁶ cm/s | 105 µM (≈ 45.4 µg/mL) |  |  | NC(=O)c1cc(-c2ccc(F)cc2)c2ccc(CN3CCNC(C(F)(F)F)C3)cc2n1 (racemic) | 11.2 µM |
| 24 ×10⁻⁶ cm/s | 2 µM (≈ 0.867 µg/mL) |  |  | NC(=O)c1cc(-c2ccc(F)cc2)c2ccc(CN3CCOC(C(F)(F)F)C3)cc2n1 (racemic) | 5.5 µM |
| 25 ×10⁻⁶ cm/s | < 1 µM | 97% | 9.2 µM | Cn1ccc(CCc2ccc3c(-c4ccc(F)cc4)cc(C(N)=O)nc3c2)n1 | 2.9 µM |
|  | 175 µM (≈ 64 µg/mL) | 1% | > 30 µM | CC1CN(Cc2ccc3c(-c4cnn(C)c4)cc(C(N)=O)nc3c2)CCO1 (racemic) | > 60 µM |
| 31 ×10⁻⁶ cm/s | 4 µM (≈ 1.44 µg/mL) | 21% | > 30 µM | Cn1cc(Cc2ccc3c(-c4ccc(F)cc4)cc(C(N)=O)nc3c2)cn1 | 3.5 µM |
| 27 ×10⁻⁶ cm/s | < 2 µM | 53% | 16.7 µM | Cc1cnn(Cc2ccc3c(-c4ccc(F)cc4)cc(C(N)=O)nc3c2)c1 | 1.9 µM |
|  | 103 µM (≈ 39.1 µg/mL) | 26% | > 30 µM | CC1CN(Cc2ccc3c(-c4ccc(F)cc4)cc(C(N)=O)nc3c2)CCO1 (racemic) | 5.5 µM |
|  | 64 µM (≈ 24.3 µg/mL) | 137% | 6 µM | Cc1ncc(-c2cc(C(N)=O)nc3cc(CN4C(=O)CCC4=O)ccc23)s1 | > 60 µM |
| 32 ×10⁻⁶ cm/s | 143 µM (≈ 60.3 µg/mL) |  |  | CC(C)(C(=O)N1CCOCC1)c1ccc2c(-c3ccc(F)cc3)cc(C(N)=O)nc2c1 | 20.6 µM |
| 30 ×10⁻⁶ cm/s | 162 µM (≈ 58.9 µg/mL) |  |  | Cn1cc(-c2cc(C(N)=O)nc3cc(CN4C(=O)CCC4=O)ccc23)cn1 |  |
| 30 ×10⁻⁶ cm/s | 141 µM (≈ 52.5 µg/mL) |  |  | Cc1ncc(CCc2ccc3c(-c4cnn(C)c4)cc(C(N)=O)nc3c2)cn1 | > 60 µM |
| 24 ×10⁻⁶ cm/s | 150 µM (≈ 56.6 µg/mL) |  |  | CCn1cc(-c2cc(C(N)=O)nc3cc(CN4C(=O)CCC4=O)ccc23)cn1 | 27 µM |
| 30 ×10⁻⁶ cm/s | 132 µM (≈ 55.4 µg/mL) |  |  | Cn1cc(-c2cc(C(N)=O)nc3cc(CN4CCOC(C(F)(F)F)C4)ccc23)cn1 (racemic) | 19 µM |
|  | 99 µM (≈ 36 µg/mL) | 54% | > 30 µM | Cc1cnn(-c2cc(C(N)=O)nc3cc(CN4C(=O)CCC4=O)ccc23)c1 |  |
| 32 ×10⁻⁶ cm/s | 125 µM (≈ 49.2 µg/mL) |  |  | COC1CC=C(c2cc(C(N)=O)nc3cc(CN4C(=O)CCC4=O)ccc23)CC1 (racemic) | > 60 µM |
|  | < 2 µM |  |  | CC1CCN(c2cc(C(N)=O)nc3cc(CN4C(=O)CCC4=O)ccc23)CC1 |  |
| 36 ×10⁻⁶ cm/s | 105 µM (≈ 36.4 µg/mL) |  |  | Cn1cc(Cc2ccc3c(-c4cnn(C)c4)cc(C(N)=O)nc3c2)cn1 | > 60 µM |
